Measurements taken from patent US8071575B2, “Methods and compounds for the targeted delivery of agents to bone for interaction therewith” (priority 2007, dated 2011).

How the values were obtained:
OVX rats [1] = experiment: Quantitative determination of lipid metabolism (total cholesterol, HDL, LDL) in rat serum; type: in vivo, Sprague-Dawley female rats
Procedure: (§1) Animals. Six month old, bilaterally ovariectomized (OVX) or sham operated Sprague-Dawley female rats (Harlan Laboratories, Indianapolis, Ind.) were maintained at the University of Louisville Research Resources Center at 22° C. with a 12-h light/dark cycle and ad libitum access to tap water and rodent chow (Purina Laboratory Rodent Diet 5001). All animal procedures were approved by the Institutional Animal Care and Use Committee, which is certified by the American Association for Accreditation of Laboratory Animal Care.
(§2) In vivo experiments were conducted in order to investigate the efficacy of compounds of the presently-disclosed subject matter. In all of the experiments, OVX and sham operated rats were randomly divided into groups of 5-7 animals. In all of the studies experimental groups included: i) Sham-operated control (euthanized six weeks post surgery as a pretreatment control), ii) OVX control (euthanized six weeks post surgery as a pretreatment control), iii) Sham control receiving vehicle, iv) OVX control receiving vehicle, v) OVX receiving 17-ethinyl estradiol (equimolar concentration with a selected test compound), vi) OVX receiving alendronate (1.6 mg/kg), and vii) OVX receiving parathyroid hormone 1-34 (PTH) ([…]). 17-ethinyl estradiol (17 EE) is a free estrogenic agent known to be orally active, and can serve as an example of an anti-catabolic agent. Alendronate (Alen) is a bisphosphonate that is currently used to treat osteoporosis (e.g., Fosamax®, Merck & Co., Inc,), and can serve as an example of an anti-catabolic agent. Parathyroid hormone 1-34 (PTH) is an agent that can serve as an example of an anabolic agent. All compounds and vehicle (1% DMSO in corn oil) were administered three times per week orally by gavage except for PTH which was administered via a subcutaneous injection in a volume of 0.5 ml/kg body mass thrice per week. Compound administration was initiated 6 weeks following surgery and lasted for 6 weeks (18 doses total).
Following 6 weeks of treatment, blood was obtained from each animal via cardiac puncture following an overnight fast and animals were subsequently euthanized via carbon dioxide asphyxiation. Blood was centrifuged immediately and the obtained serum samples were aliquoted and stored at −70° C. prior to analysis. Uteri were removed and fresh weights were obtained. Uterine masses were normalized to body mass at the end of the experiment. The left and right femora and left and right tibiae were subsequently collected from each animal, cleaned of soft tissue, and stored in saline at 4° C. prior to analysis.
Quantitative Determination of Lipid Metabolism (Total Cholesterol HDL, and LDL) in Rat Serum. Total cholesterol, high-density lipoprotein (HDL), and low-density lipoprotein (LDL) were quantitatively determined in the serum of rats in order to evaluate the extraosseous effects of estrogen treatment on lipid metabolism. Commercially available kits from Wako Diagnostics (Richmond, Va.) were used for the evaluations as recommended by the manufacturer.

OVX rats [2] = experiment: Regional femoral density via Archimedes' Principle; type: in vivo, Sprague-Dawley female rats; conditions: three times per week for 6 weeks
Procedure: as §1, §2
Compounds of the presently-disclosed subject matter were orally administered to OVX rats at various doses. As indicated above all BTE's were administered three times per week for 6 weeks.
Following 6 weeks of treatment, blood was obtained from each animal via cardiac puncture following an overnight fast and animals were subsequently euthanized via carbon dioxide asphyxiation. […]
Regional Femoral Density via Archimedes' Principle. […] Briefly, each femur was measured with a Cen-Tech Digital Caliper and a cut was made from each end at 20% of the length of the femur plus half the width of the blade. Subsequently, the bone marrow was washed out of the femoral diaphysis and the Archimedes density for each of the three femoral regions was determined as described above.

[3] = Hydroxyapatite (HA) Binding Assay; conditions: 10^−5 M analyte, 50 mM Tris-HCl pH 7.4, 1% DMSO; adjusted such that tetracycline = 100
Procedure: A Hydroxyapatite (HA) Binding Assay is used to determine whether compounds have an affinity for bone. Compounds of the presently-disclosed subject matter having a Bone Targeting Portion (RT) are studied using the HA Binding Assay. A 10^−3 M solution of each analyte was made in 100% dimethylsulfoxide (DMSO). A 100 fold dilution was then made to form a 10^−5 M solution in 50 mM Tris-HCl buffer, pH 7.4, 1% DMSO. Tetracycline was used as a reference analyte and approximately 50% was adsorbed to HA at the concentration of 10^−5 M. The HA slurry was 0.5 g/100 mL 50 mM Tris-HCl buffer, 1% DMSO.
For each analyte, two samples were prepared. For one sample, 1 mL of 10^−5 M analyte and 100 μL 50 mM Tris-HCl buffer, 1% DMSO was pipetted into a microcentrifuge tube. For the second sample, 1 mL of 10^−5 M analyte and 100 μL of the HA slurry was pipetted into a microcentrifuge tube. The samples were mixed gently by inversion for 4 minutes and then centrifuged at 12,000 g for 3 minutes to sediment the HA contained in those samples. The supernatant was transferred to another microcentrifuge tube.
An electronic spectral scan (ultraviolet-visible) from 220-520 nm was obtained for each analyte using a Varian Cary 300 Bio Scan. The blank was 50 mM Tris-HCl buffer, 1% DMSO. The wavelength of maximum absorbance (λmax) was determined, and the extinction coefficient (ε) was calculated using the Beer-Lambert Law.
The absorbance of the samples incubated with HA was measured at λmax, and the molar concentration of the analyte was then determined using the Beer-Lambert Law and the previously calculated extinction coefficient. The fraction adsorbed to HA for each sample was subsequently calculated.

ICR Swiss mice = experiment: Stimulation of periosteal bone formation in a mouse calvarial injection model; type: in vivo; conditions: present-tense example, no data or figure
Procedure: Stimulation of Periosteal Bone Formation in a Mouse Calvarial Injection Model. The anabolic (bone formation) of compounds of the presently-disclosed subject matter are evaluated in the mouse calvarial injection model. Briefly, 4-week-old ICR Swiss mice are injected subcutaneously over the surface of the calvariae with compounds of the presently-disclosed subject matter at concentrations of 0, 1, 3, and 10 mg/kg/day for 5 days (twice a day). Microtubule inhibitor TN-16 (5 mg/kg/day for 2 days, twice a day) are used as a positive control. Mice are sacrificed two weeks after the injections are completed. Dissected calvarial samples are fixed in 10% phosphate-buffered formalin for 2 days, decalcified in 10% EDTA for 2 weeks and then embedded in paraffin. Histological sections are cut and stained with H&E and orange G. New woven bone formation (new bone area) is quantified by histomorphometry using the OsteoMeasure system (OsteoMetrics Inc., Atlanta, Ga.).

## COc1ccc(NC(=O)CCC(=O)OC2CCC3C4CCC5=CC(=O)CCC5(C)C4CCC23C)c(O)c1C(N)=O (centres unmarked) [Formula 33]
OVX rats [1]; present-tense example, no data or figure
  lipid metabolism (total cholesterol, HDL, LDL in serum): limited or no effect
OVX rats [2]; oral 3000 μg/kg
  regional bone density (proximal and distal left femur): higher than that of the OVX animals
[3]
  Binding Index (binding to hydroxyapatite): 140
ICR Swiss mice
  new bone area (calvarial injection model): increase new bone area

## COc1ccc(NC(=O)COCCOCCNC(=O)CCOC2CCC3C4CCc5cc(O)ccc5C4CCC23C)c(O)c1C(N)=O (centres unmarked) [Formula 123]
OVX rats [1]; rat, in vivo
  lipid metabolism (total cholesterol, HDL, LDL in serum): limited or no effect
OVX rats [2]; oral 10, 100, or 1000 μg/kg
  regional bone density (left femur): increased regional bone densities, as compared to the OVX animals
[3]
  Binding Index (binding to hydroxyapatite): 160
ICR Swiss mice
  new bone area (calvarial injection model): affect new bone area
